# Assay results as given in patent US7115658B2 (priority 2002, dated 2006).
# Target: T1, Recombinant HCV polymerase (Hepatitis C virus genotype 1b, UniProt P26663)
# T1 construct: 2.5 pmoles (0.15 μg) HCV polymerase protein
# Assay: HCV Polymerase Inhibition Assay
# Type: biochemical
# Conditions: primer/template-directed transcription, 30 minutes at 30° C.; category symbol
# Procedure, shortened: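 Recombinant genotype 1b polymerase (2.5 pmol) extended biotin-dG12 on poly(rC)300 with 1 μM GTP plus α-32P-GTP, pH 7.2, 30 min at 30 °C, 1% DMSO final; DE-filter-bound product counted. IC50 fitted from triplicate cpm, refitted with enzyme-concentration (30 nM) tight-binding equation when below 200 nM.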
# T1 sequence (P26663 2420-3010): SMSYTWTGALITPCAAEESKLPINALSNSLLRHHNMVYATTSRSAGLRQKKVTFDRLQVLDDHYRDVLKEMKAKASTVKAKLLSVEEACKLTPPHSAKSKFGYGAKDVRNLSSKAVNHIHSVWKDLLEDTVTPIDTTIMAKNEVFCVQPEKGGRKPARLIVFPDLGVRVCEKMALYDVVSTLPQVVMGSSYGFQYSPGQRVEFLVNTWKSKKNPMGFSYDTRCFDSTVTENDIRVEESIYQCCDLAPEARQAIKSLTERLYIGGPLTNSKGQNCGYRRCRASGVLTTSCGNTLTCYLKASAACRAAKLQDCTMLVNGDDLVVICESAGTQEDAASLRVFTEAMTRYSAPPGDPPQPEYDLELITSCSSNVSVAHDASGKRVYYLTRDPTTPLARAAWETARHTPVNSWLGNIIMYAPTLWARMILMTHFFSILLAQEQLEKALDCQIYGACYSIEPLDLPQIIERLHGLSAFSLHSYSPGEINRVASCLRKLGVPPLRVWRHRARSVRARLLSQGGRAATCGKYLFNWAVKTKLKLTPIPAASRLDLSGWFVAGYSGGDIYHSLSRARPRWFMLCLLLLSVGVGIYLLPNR
row,Molecule,IC50 [µM]
1,Cc1cc(SC2=C(O)CC(CCc3ccc(O)cc3)(C3CCCC3)OC2=O)c(C(C)(C)C)cc1OS(=O)(=O)N1CCN(C)CC1 (centres unmarked) [Example 147],1 to 10
2,"CC(=O)Nc1cc(C(C)(C)C)c(SC2=C(O)CC(CCc3ccc(O)cc3)(C3CCCCC3)OC2=O)cc1C (centres unmarked) [Example 142, N-(5-tert-butyl4-{6-cyclohexyl-4-hydroxy-6-[2-(4-hydroxy-phenyl)-ethyl]-2-oxo-5,6-dihydro-2H-pyran-3-ylsulfanyl)-2-methyl-phenyl)-acetamide]",> 50
3,"C=CCOCCC1(C2CCCC2)CC(O)=C(Sc2nc3nc(C)cc(C)n3n2)C(=O)O1 (centres unmarked) [Example 104, 6-(2-Allyloxy-ethyl)-6-cyclopentyl-3-(5,7-dimethyl-[1,2,4]triazolo[1,5-a]pyrimidin-2-ylsulfanyl)-4-hydroxy-5,6-dihydro-pyran-2-one]",10 to 50
4,"CC(C)Oc1ccc(CCC2(C3CCCC3)CC(=O)CC(=O)O2)cc1F (centres unmarked) [Example 73, 6-Cyclopentyl-6-[2-(3-fluoro-4-isopropoxy-phenyl)-ethyl]-dihydro-pyran-2,4-dione]",< 1
5,"COc1cc(OC)c(CCC2(C3CCCC3)CC(O)=C(Sc3nc4nc(C)cc(C)n4n3)C(=O)O2)cc1Cl (centres unmarked) [Example 91, 6-[2-(5-Chloro-2,4-dimethoxyphenyl)ethyl]-6-cyclopentyl-3-[(5,7-dimethyl[1,2,4]triazolo[1,5-a]pyrimidin-2-yl)thio]-4-hydroxy-5,6-dihydro-2H-pyran-2-one]",< 1
6,"COc1ccc(CCC2(C3CCCC3)CC(O)=C(Sc3nc[nH]n3)C(=O)O2)cc1Cl (centres unmarked) [Example 124, 6-[2-(3-Chloro-4-methoxy-phenyl)-ethyl]-6-cyclopentyl-4-hydroxy-3-(1 H[1,2,4]triazol-3-ylsulfanyl)-5,6-dihydro-pyran-2-one]",< 1
7,"COc1cc(OC)c(CCC2(C3CCCC3)CC(O)=C(Sc3cnccn3)C(=O)O2)cc1Cl (centres unmarked) [Example 108, 6-[2-(5-Chloro-2,4-dimethoxyphenyl)ethyl]-6-cyclopentyl-4-hydroxy-3-(pyrazin-2-ylthio)-5,6-dihydro-2H-pyran-2-one]",< 1
8,"COc1cc(F)c(CCC2(C3CCCC3)CC(=O)CC(=O)O2)cc1F (centres unmarked) [Example 74, 6-Cyclopentyl-6-[2-(2,5-difluoro-4-methoxy-phenyl)-ethyl]-dihydro-pyran-2,4-dione]",1 to 10
9,"COc1cc(OC)c(CCC2(C3CCCC3)CC(O)=C(SC3=NCCCN3)C(=O)O2)cc1Cl (centres unmarked) [Example 110, 6-[2-(5-Chloro-2,4-dimethoxyphenyl)ethyl]-6-cyclopentyl-4-hydroxy-3-(1,4,5,6-tetrahydropyrimidin-2-ylthio)-5,6-dihydro-2H-pyran-2-one]",< 1
10,"COc1cc(OC)c(CCC2(C3CCCC3)CC(=O)CC(=O)O2)cc1Cl (centres unmarked) [Example 39, 6-[2-(5-chloro-2,4-dimethoxyphenyl)ethyl]-6-cyclopentyldihydro-2H-pyran-2,4(3H)-dione]",< 1
11,"Cc1cc(SC2=C(O)CC(CCC(C)C)(C3CCCC3)OC2=O)c(C(C)(C)C)cc1CO (centres unmarked) [Example 144, 3-(2-tert-butyl-4-hydroxymethyl-5-methyl-phenylsulfanyl)-6-cyclopentyl-4-hydroxy-6-(3-methyl-butyl)-5,6-dihydro-pyran-2-one]",> 50
12,CCOc1ccc(CCC2(C3CCCC3)CC(=O)CC(=O)O2)cc1Cl (centres unmarked) [Example 44],< 1
13,"COc1cc(OC)c(CCC2(C3CCCC3)CC(O)=C(Sc3nc(N)c4cn[nH]c4n3)C(=O)O2)cc1Cl (centres unmarked) [Example 97, 3-[(4-amino-1H-pyrazolo[3,4-d]pyrimidin-6-yl)thio]-6-[2-(5-chloro-2,4-dimethoxyphenyl)ethyl]-6-cyclopentyl-4-hydroxy-5,6-dihydro-2H-pyran-2-one]",< 1
14,"COc1ccc(CCC2(C3CCCC3)CC(O)=C(Cl)C(=O)O2)cc1 (centres unmarked) [Example 87, 3-Chloro-6-cyclopentyl-4-hydroxy-6-[2-(4-methoxyphenyl)ethyl]-5,6-dihydropyran-2-one]",10 to 50
15,"O=C1C=C(O)CC(CCc2ccc(Oc3ccccc3)cc2)(C2CCCC2)O1 (centres unmarked) [Example 47, 6-cyclopentyl-6-[2-(4-phenoxyphenyl)ethyl]-4-hydroxy-5,6-dihydro-2H-pyran-2-one]",10 to 50
16,"COc1ccc(CCC2(C3CCCC3)CC(=O)C(C(C)=O)C(=O)O2)c(OC)c1 (centres unmarked) [Example 166, 3-Acetyl-6-cyclopentyl-6-[2-(2,4-dimethoxy-phenyl)-ethyl]-dihydro-pyran-2,4-dione]",10 to 50

row,Molecule,IC50 [µM]
1,"COc1ccc(CCC2(C3CCCC3)CC(=O)CC(=O)O2)cc1F (centres unmarked) [Example 30, 6-Cyclopentyl-6-[2-(3-fluoro-4-methoxy-phenyl)-ethyl]-dihydro-pyran-2,4-dione]",< 1
2,"COc1cc(OC)c(CCC2(C3CCCC3)CC(O)=C(Sc3nc(O)c4cc[nH]c4n3)C(=O)O2)cc1Cl (centres unmarked) [Example 105, 6-[2-(5-Chloro-2,4-dimethoxyphenyl)ethyl]-6-cyclopentyl-4-hydroxy-3-[(4-hydroxy-7H-pyrrolo[2,3-d]pyrimidin-2-yl)thio]-5,6-dihydro-2H-pyran-2-one]",< 1
3,"CC(C)(C)c1cc2nc(N)sc2cc1SC1=C(O)CC(C2CCCC2)(C2CCCC2)OC1=O [Example 183, 3-(2-Amino-5-tert-butyl-benzothiazol-6-ylsulfanyl)-6,6-dicyclopentyl-4-hydroxy-5,6-dihydro-pyran-2-one]",10 to 50
4,"COc1ccc(CCC2(C3CCCC3)CC(=O)C(C(=O)Cc3cccnc3)C(=O)O2)cc1 (centres unmarked) [Example 173, 6-Cyclopentyl-6-[2-(4-methoxy-phenyl)-ethyl]-3-(2-pyridin-3-yl-acetyl)-dihydro-pyran-2,4-dione]",1 to 10
5,"O=C(Cc1ccccc1)C1C(=O)CC(CCc2cccc(Cl)c2)(C2CCCC2)OC1=O (centres unmarked) [Example 170, 6-[2-(3-Chloro-phenyl)-ethyl]-6-cyclopentyl-3-phenylacetyl-dihydro-pyran-2,4-dione]",10 to 50
6,"Cc1cc(C)n2nc(SC3=C(O)CC(CCc4ccc(OCc5ccccc5)cc4)(C4CCCC4)OC3=O)nc2n1 (centres unmarked) [Example 122, 6-{2-[4-(Benzyloxy)phenyl]ethyl}-6-cyclopentyl-3-[(5,7-dimethyl[1,2,4]triazolo[1,5-a]pyrimidin-2-yl)thio]-4-hydroxy-5,6-dihydro-2H-pyran-2-one]",< 1
7,"COc1ccc(CCC2(C3CCCC3)CC(O)=C(Sc3nc(N)n[nH]3)C(=O)O2)cc1 (centres unmarked) [Example 115, 3-[(3-Amino-1H-1,2,4-triazol-5-yl)thio]-6-cyclopentyl-4-hydroxy-6-[2-(4-methoxyphenyl)ethyl]-5,6-dihydro-2H-pyran-2-one]",1 to 10
8,"COc1ccc(CCC2(C3CCCC3)CC(O)=C(Sc3nnnn3CCN(C)C)C(=O)O2)cc1 (centres unmarked) [Example 116, 6-Cyclopentyl-3-({1-[2-(dimethylamino)ethyl]-1H-tetraazol-5-yl}thio)-4-hydroxy-6-[2-(4-methoxyphenyl)ethyl]-5,6-dihydro-2H-pyran-2-one]",1 to 10
9,"CCOc1ccc(CCC2(C3CCCC3)CC(=O)CC(=O)O2)cc1 (centres unmarked) [Example 25, 6-Cyclopentyl-6-[2-(4-ethoxy-phenyl)-ethyl]-dihydro-pyran-2,4-dione]",1 to 10
10,"CC(=O)c1ccc(CCC2(C3CCCC3)CC(=O)CC(=O)O2)cc1F (centres unmarked) [Example 59, 6-[2-(4-Acetyl-3-fluoro-phenyl)-ethyl]-6-cyclopentyl-dihydro-pyran-2,4-dione]",1 to 10
11,"6-[2-(3-Chloro-4-isopropoxy-phenyl)-ethyl]-6-cyclopentyl-4-hydroxy-3-(4-hydroxy-phenylsulfanyl)-5,6-dihydro-pyran-2-one [Example 130]",< 1
12,"COc1ccc(CCC2(C3CCCC3)CC(O)=C(Sc3nc4ccccc4[nH]3)C(=O)O2)cc1Cl (centres unmarked) [Example 128, 3-(1H-Benzoimidazol-2-ylsulfanyl)-6-[2-(3-chloro-4-methoxy-phenyl)-ethyl]-6-cyclopentyl-4-hydroxy-5,6-dihydro-pyran-2-one]",< 1
13,"CCOc1ccc(CCC2(C3CCCC3)CC(=O)CC(=O)O2)cc1F (centres unmarked) [Example 71, 6-Cyclopentyl-6-[2-(4-ethoxy-3-fluoro-phenyl)-ethyl]-dihydro-pyran-2,4-dione]",< 1
14,"CC(C)Oc1ccc(CCC2(C3CCCC3)CC(=O)CC(=O)O2)cc1Cl (centres unmarked) [Example 81, 6-[2-(3-Chloro-4-isopropoxy-phenyl)-ethyl]-6-cyclopentyl-dihydro-pyran-2,4-dione]",< 1
15,"Cc1cc(SC2=C(O)CC(CCc3cc(Cl)c(N)c(Cl)c3)(C(C)C)OC2=O)c(C(C)(C)C)cc1N (centres unmarked) [Example 138, 3-(4-Amino-2-tert-butyl-5-methyl-phenylsulfanyl)-6-[2-(4-amino-3,5-dichloro-phenyl)-ethyl]-4-hydroxy-6-isopropyl-5,6-dihydro-pyran-2-one]",10 to 50

# Same assay, conditions: primer/template-directed transcription, 30 minutes at 30° C.; read-out: IC50(μM) Category
row,Molecule,IC50 [µM]
1,"Cc1cc(SC2=C(O)CC(C3CCCC3)(C3CCCC3)OC2=O)c(C(C)(C)C)cc1N [Example 179, 3-(4-Amino-2-tert-butyl-5-methyl-phenylsulfanyl)-6,6-dicyclopentyl-4-hydroxy-5,6-dihydro-pyran-2-one]",15.5
2,"Cc1cc(SC2=C(O)CC(C3CCCC3)(C3CCCC3)OC2=O)c(C(C)(C)C)cc1OCCO [Example 181, 3-[2-tert-butyl-4-(2-hydroxy-ethoxy)-5-methyl-phenylsulfanyl]-6,6-dicyclopentyl-4-hydroxy-5,6-dihydro-pyran-2-one]",36

# System: not given
# Assay: not given
# Conditions: not given
row,Molecule,melting point [°C]
1,"Cc1cc(SC2=C(O)CC(C3CCCC3)(C3CCCC3)OC2=O)c(C(C)(C)C)cc1N [Example 179, 3-(4-Amino-2-tert-butyl-5-methyl-phenylsulfanyl)-6,6-dicyclopentyl-4-hydroxy-5,6-dihydro-pyran-2-one]",163 to 165
2,Cc1cc(SC2=C(O)CC(CCc3ccc(O)cc3)(C3CCCC3)OC2=O)c(C(C)(C)C)cc1OS(=O)(=O)N1CCN(C)CC1 (centres unmarked) [Example 147],163 to 165
3,"Cc1cc(SC2=C(O)CC(C3CCCC3)(C3CCCC3)OC2=O)c(C(C)(C)C)cc1OCCO [Example 181, 3-[2-tert-butyl-4-(2-hydroxy-ethoxy)-5-methyl-phenylsulfanyl]-6,6-dicyclopentyl-4-hydroxy-5,6-dihydro-pyran-2-one]",100 to 102
4,"CC(=O)Nc1cc(C(C)(C)C)c(SC2=C(O)CC(CCc3ccc(O)cc3)(C3CCCCC3)OC2=O)cc1C (centres unmarked) [Example 142, N-(5-tert-butyl4-{6-cyclohexyl-4-hydroxy-6-[2-(4-hydroxy-phenyl)-ethyl]-2-oxo-5,6-dihydro-2H-pyran-3-ylsulfanyl)-2-methyl-phenyl)-acetamide]",> 154
5,CCN(C1=C(O)C[C@@](CCc2ccc(O)cc2)(C2CCCC2)OC1=O)c1ccccc1 [Example 158],90 to 92
